What was measured:
Format in all cases: cell-based
[1] = molecular target: T1, human OCT2 (Homo sapiens, UniProt O15244); assay: competition of [3H]-histamine uptake in transfected HEK293T cells; conditions: 2.5 uM [3H]-histamine, 30 min, 37 C, pH 7.4; competitor concentration for OCT2 not given
T1 construct: gene SLC22A2
T1 sequence (O15244 1-555): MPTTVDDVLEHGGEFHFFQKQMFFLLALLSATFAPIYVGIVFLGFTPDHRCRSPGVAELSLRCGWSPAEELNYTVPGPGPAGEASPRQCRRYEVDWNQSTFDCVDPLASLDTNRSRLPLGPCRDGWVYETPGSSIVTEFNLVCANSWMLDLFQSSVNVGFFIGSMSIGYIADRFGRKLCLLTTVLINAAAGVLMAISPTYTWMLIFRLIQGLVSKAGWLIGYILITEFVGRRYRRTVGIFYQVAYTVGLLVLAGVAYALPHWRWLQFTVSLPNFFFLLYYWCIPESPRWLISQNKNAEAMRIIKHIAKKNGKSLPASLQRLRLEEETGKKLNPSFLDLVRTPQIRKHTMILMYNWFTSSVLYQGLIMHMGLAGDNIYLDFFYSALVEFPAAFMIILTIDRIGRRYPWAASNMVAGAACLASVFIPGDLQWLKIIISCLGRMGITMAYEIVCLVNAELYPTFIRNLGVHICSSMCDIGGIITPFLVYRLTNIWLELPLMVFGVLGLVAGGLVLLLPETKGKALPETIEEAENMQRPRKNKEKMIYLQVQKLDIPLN

[2] = molecular target: T2, HisT (CG1358) (Drosophila melanogaster, UniProt A0A0B4JD50); assay: [3H]-histamine uptake in transfected HEK293T cells; conditions: labelled compound; 2.5 uM, 30 min, 37 C, pH 7.4, ECF buffer with 120 mM NaCl
T2 sequence (A0A0B4JD50 1-482): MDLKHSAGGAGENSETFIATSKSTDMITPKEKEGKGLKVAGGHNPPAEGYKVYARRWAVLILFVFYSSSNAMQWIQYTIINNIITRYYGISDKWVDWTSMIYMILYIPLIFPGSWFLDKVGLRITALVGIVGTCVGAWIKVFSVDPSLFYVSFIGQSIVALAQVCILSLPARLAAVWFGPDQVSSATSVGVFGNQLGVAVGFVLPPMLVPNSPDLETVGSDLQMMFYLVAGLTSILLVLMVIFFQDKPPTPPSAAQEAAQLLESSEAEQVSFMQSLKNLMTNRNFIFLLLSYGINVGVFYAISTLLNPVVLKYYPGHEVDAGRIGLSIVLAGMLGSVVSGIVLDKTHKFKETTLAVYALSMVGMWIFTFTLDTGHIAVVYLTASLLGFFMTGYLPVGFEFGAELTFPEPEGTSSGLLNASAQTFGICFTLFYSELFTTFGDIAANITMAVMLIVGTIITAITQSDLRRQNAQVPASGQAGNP

[3] = molecular target: T1, human OCT2; assay: [3H]-histamine uptake in transfected HEK293T cells; conditions: labelled compound; 2.5 uM, 30 min, 37 C, pH 7.4, ECF buffer with 120 mM NaCl

Row | Compound | inhibition of [3H]-histamine uptake [1] | [3H]-histamine uptake in transfected HEK293T cells [2] | [3H]-histamine uptake in transfected HEK293T cells [3]
1 | NCCC(=O)NCCc1c[nH]cn1 [carcinine] | OCT2-mediated [^3H]-histamine uptake was completely blocked by dopamine, serotonin, and carcinine | – | –
2 | NCCc1ccc(O)c(O)c1 [dopamine] | OCT2-mediated [^3H]-histamine uptake was completely blocked by dopamine, serotonin, and carcinine | – | –
3 | NCCc1c[nH]cn1 [histamine] | – | is the only transporter exhibiting histamine uptake activity in vitro | OCT2), which mediates the low-affinity transport of some monoamine neurotransmitters including histamine
4 | NCCc1c[nH]c2ccc(O)cc12 [serotonin] | OCT2-mediated [^3H]-histamine uptake was completely blocked by dopamine, serotonin, and carcinine | – | –

From publication PMC9604546, “Drosophila HisT is a specific histamine transporter that contributes to histamine recycling in glia” (Science Advances, 2022)
